Test results from patent US10556926B2, “Synthetic artificial peptides with antimicrobial effect” (priority 2014, dated 2020).
Where two headings read alike, the source gives them in different places. No end group written: not given here.

Legend:
[1] = tested on: human histiocytic lymphoma cell line U937; test: Long-term growth inhibition, minimum toxic concentration (MTC)
Method: The cytotoxic potential of the antimicrobial peptides was determined by way of example by reference to the human histiocytic lymphoma cell line U937 (DSMZ). The influence of the peptides on the permeability of the cell membrane and their longer-term growth-inhibiting effect was investigated. 15 ml of RPMI 1640 medium with 2 mM glutamine and 10% FCS (Biochrom, Berlin, Germany) were inoculated with 1·10^5 cells per ml and cultivated for three days at 37° in T75 cell culture bottles (TPP, Trasadingen, Switzerland) with constant gassing with 5% CO2 in a climatically controlled chamber. The medium was admixed with 10 U/ml penicillin and […] streptomycin (both AppliChem, Darmstadt, Germany) to avoid bacterial contaminations, with no further antibiotics being added during the subsequent recultivation. Before each experiment, the cells were washed by centrifugation at 100 g for five minutes and subsequent resuspension in RPMI 1640 medium with 2 mM glutamine and 10% FCS in each case two times and adjusted to a concentration of 1·10^5 cells per ml. Finally, in each case 100 μl of the U937 cells were transferred to the reaction chambers of a sterile 96-well polypropylene microtiter plate and admixed with in each case 100 μl of a prediluted antimicrobial peptide in RPMI 1640 medium without antibiotic addition, such that end concentrations of in each case 5·10^4 cells per ml at peptide concentrations between 0.25 μM and 64 μM were present. The negative control used was samples without antimicrobial peptide, while Triton X-100 (AppliChem) was used in an end concentration of 5% as positive control for the permeabilization. The samples were cultivated for two hours at 37° C. and with continuous gassing with 5% CO2 in a climatically controlled chamber. Then, in each case 100 μl of each sample were removed and transferred to new sterile microtiter plates for determining the direct membrane damage. The remaining 100 μl of the samples were cultivated for at least four further days.
For this purpose, 10 μl of lysing solution were added to in each case 100 μl of cell suspension and incubated for 60 minutes at 37° C. Then, the cell culture supernatants were investigated as described above. The lowest peptide concentration at which complete suppression of the cell growth was established after four days was stipulated as the minimum toxic concentration (MTC).

E. coli ML-35p [2] = test: Kinetics of permeabilization of the inner bacteria membrane (ONPG); format: cell-based, Escherichia coli
Method: (§1) The ability of the antimicrobial peptides for the respective permeabilization of the outer and inner bacteria membrane was tested by way of example on E. coli ML-35p (made available by Dr. R. E. Lehrer, Center for Health Sciences, Los Angeles, Calif., USA). The peptides were incubated in serial dilution with E. coli ML-35p and the time-dependent release of cell-internal components was measured in a slightly modified protocol according to Ericsson et al. (2002). For this purpose, the bacteria were cultured in Luria-Bertani (LB) medium with 100 μg/ml ampicillin (Fluka, Taufkirchen, Germany) until reaching an optical density of 0.4 at 600 nm wavelength. Then, the cells were washed three times by centrifugation at 4000 g for 1 min and subsequent up-take in 10 mM HEPES buffer pH 7.2. Finally, the cells were diluted to an optical density of 0.3 at 600 nm wavelength. To measure the permeabilization of the outer membrane, nitrocefin (Merck, Darmstadt, Germany) was diluted in HEPES buffer to a concentration of 60 μg/ml. The antimicrobial peptides were diluted in HEPES buffer to an end concentration of 12 μM, 24 μM, 48 μM and 96 μM end concentration. In the next step, 50 μl of nitrocefin were admixed with 50 μl of antimicrobial peptide and 50 μl of bacteria suspension such that an end concentration of 20 μg/ml of nitrocefin, 4 μM to 32 μM of antimicrobial peptide and bacteria with an optical density of 0.1 to 600 nm were present. The samples were mixed and the absorption at 500 nm wavelength was measured directly over a period of at least 90 min at 37° C. with regular shaking in a FLUOstar omega Microplate Reader (BMG Labtech, Ortenberg, Germany). The investigation of the permeabilization of the inner membrane was carried out in the same way except that instead of the nitrocefin accordingly 0-nitrophenyl-beta-D-galactoside (ONPG, Sigma-Aldrich) in an end concentration of 100 μg/ml was used and the absorption change was determined at a wavelength of 420 nm. The control used was samples without antimicrobial peptide, the positive control used for the membrane permeabilization was polymyxin B (Sigma-Aldrich) in an end concentration of 5 μM. For the data evaluation, firstly the measurement values of the corresponding negative controls were deducted from the measurement values of the samples, and the difference was then divided by the corresponding measurement values of the permeabilization control. Then, a graphical evaluation was carried out, the calculated values being plotted against the peptide concentration and being fitted with the help of the Origin Pro 8.1 G Software (OriginLab) according to a sigmoidal model. As representative examples, FIGS. 4 and 5 show the graphical evaluation for the kinetic investigation of the permeabilization of the outer E. coli bacteria membrane for the peptides N4 (FIG. 4) and O1 (FIG. 5).
(§2) As comparison parameter between the peptides, the times were ascertained from this at which 50% of the final signal level was reached. For this purpose, the equation with the percentage membrane permeabilization y, the time x in minutes, the lower plateau A1, the upper plateau A2, the point of inflection Log X0 and the Hill incline p
(§3) [formula] was used. The calculation of the parameters A1, A2, Log X0 and p was performed by the program by reference to the compensating curve. Further resolution of equation 5.1 for the case y=50 then produced for x the desired time at which the half-maximum signal level was reached.

E. coli ML-35p [3] = test: Kinetics of permeabilization of the outer bacteria membrane (nitrocefin); format: cell-based, Escherichia coli
Method: as §1, with “model.” for “model. As representative examples, FIGS. 4 and 5 show the graphical evaluation for the kinetic investigation of the permeabilization of the outer E. coli bacteria membrane for the peptides N4 (FIG. 4) and O1 (FIG. 5).”
as §2, §3

Staphylococcus xylosus = details: 18 h
Method: (§4) The minimum inhibitory concentration (MIC) of the peptides was carried out by way of example against gram(−) E. coli DH5α (and gram(+) Staphylococcus xylosus (both Deutsche Sammlung von Mikroorganismen and Zellkulturen, DSMZ) in a standardized microdilution method according to the general guidelines of the CLSI (Clinical and Laboratory Standards Institute 2006) and EUCAST (European Committee for Antimicrobial Susceptibility Testing of the European Society of Clinical Microbiology and Infectious Diseases 2003) with slight adaptations to the investigation of cationic antimicrobial peptides (Wiegand et al. 2008). The bacteria cells were cultivated in Mueller-Hinton-Boullion (MHB) to an optical density of 0.4 to 0.6 at 600 nm wavelength, corresponding to about 4·10^8 bacteria per ml. Then, the bacteria cultures were diluted to a bacteria concentration of about 1·10^5 bacteria per ml in sterile MHB. Using the peptides, series of 2-fold dilutions starting at 128 μM to the smallest dilution of 0.5 μM in MHB were prepared. The peptide dilutions were mixed with the dilute bacteria cultures in a […] in the chambers of a 96-well polypropylene microtiter plate (Starlab, Hamburg, Germany), so that the peptides were present in an end concentration between 64 μM and 0.25 μM at a bacteria concentration of 5·10^4 bacteria/ml. Sterile MHB served as negative control, and the positive control used as the corresponding bacteria concentration in MHB without the addition of peptide. The microtiter plates were incubated for 18 hours at 37° C. with shaking at 120 rpm in a climatically controlled chamber. After the incubation, the bacteria concentration was determined by renewed absorption measurement at a wavelength of 600 nm.

E. coli DH5α = details: DH5α, 18 h
Method: as §4

[4] = tested on: human histiocytic lymphoma cell line U937; test: Cytotoxicity, direct membrane damage (CytoTox 96), LD50; format: cell-based; details: U937, two hours at 37° C., 0.25-64 μM
Method: The direct membrane damage was investigated with the help of the CytoTox 96 Non-Radioactive Cytotoxicity Assay (Promega, Mannheim, Germany). For this purpose, the cells were sedimented at 100 g for ten minutes at 4° C., and 50 μl of the resulting culture supernatant were added to 50 μl of the CytoTox substrate mix. After an incubation time of 30 minutes in the dark at room temperature, 50 μl of the CytoTox stopping solution were added to the sample and the absorption was measured at 490 nm. To determine the LD50 value, the measurement value of the negative control was deducted from the absorption values and divided by the measurement value of the permeabilization control. The calculated values were plotted graphically against the peptide concentration and fitted using the Origin pro 8.1 G Software according to a sigmoidal model and the LD50 values were ascertained from this. The calculation was carried out analogously to example 5 by reference to the solution of equation 5.1 for the case y=50, where y in this case corresponds to the relative cytotoxicity in percent and x corresponds to the peptide concentration in μM. Representative graphical evaluations of LD50 values are shown in FIG. 6 by reference to the measurement results for the reference peptides BMAP-27, protamine and KL-helix, and also the peptide O1 according to the invention.

Substance | MIC S. xylosus (Staphylococcus xylosus) | MIC E. coli (E. coli DH5α) | Toxicity LD50 [4] | Toxicity MTC (minimum toxic concentration) [1] | other results
GRFKRFRKKFKKLFKKLSPVIPLLHLG-OH [BMAP-27] | – | – | – | – | Toxicity MTC (minimum toxic concentration) ([1]; U937, complete suppression of cell growth after four days): 4.0 µM; Inner membrane, time to 50% of final signal (E. coli ML-35p [2]; 4 μM peptide): 16 min; Inner membrane, time to 50% of final signal (E. coli ML-35p [2]; 8 μM peptide): 9 min; Inner membrane, time to 50% of final signal (E. coli ML-35p [2]; 16 μM peptide): 7 min; Inner membrane, time to 50% of final signal (E. coli ML-35p [2]; 32 μM peptide): 5 min; Outer membrane, time to 50% of final signal (E. coli ML-35p [3]; 4 μM peptide): <1 min; Outer membrane, time to 50% of final signal (E. coli ML-35p [3]; 8 μM peptide): <1 min; Outer membrane, time to 50% of final signal (E. coli ML-35p [3]; 16 μM peptide): <1 min; Outer membrane, time to 50% of final signal (E. coli ML-35p [3]; 32 μM peptide): <1 min
KRKLILKRILIKRK [A2] | 8 µM | 16 µM | >64 µM | >64 µM | –
KRKSGSGSKRK [M6] | >64 µM | >64 µM | >64 µM | >64 µM | –
LIKRK [N8, LIKRK] | >64 µM | >64 µM | >64 µM | >64 µM | –
LILIKRK [N6, LILIKRK] | >64 µM | >64 µM | >64 µM | >64 µM | –
LILKRKRKRKRILI [A5] | >64 µM | >64 µM | >64 µM | >64 µM | –
RKILILIKRK [N3] | 4 µM | 16 µM | >64 µM | >64 µM | –
RKLILKRKRILIKR [A3] | 8 µM | 16 µM | >64 µM | >64 µM | –
RKRKILILIKRK [N2] | 2 µM | 8 µM | >64 µM | >64 µM | –
RKRKLILILIKRKR [A1] | 0.5 µM | 8 µM | >64 µM | >64 µM | –
RRRVVVVVRRR [S5] | 2 µM | 32 µM | >64 µM | >64 µM | –
